Read-outs that look alike come from different tables or passages of the source. Blank lines part the entries; values can stand above or below the molecule they belong to.
What was measured:
[1] = tested on: intestinal microsomal heme oxygenase; assay: Intestinal microsomal heme oxygenase activity after a single dose to rats; format: in vivo, rat; details: for Heme Oxygenase Activity in the Gut, Average: control 2.70 + 0.09
Experimental: (§1) Rats were maintained on Standard Purina Rodent Chow (St. Louis, Mo.), and were allowed to acclimatize to a light-cycled room (12 hr light/dark cycle) for at least one week prior to study. SnPP was dissolved in a small volume (0.2 ml/ml final volume) of 0.2N Na3 PO4 12H2 O, adjusted to pH 7.4 with 1M HCl and made up to a final volume with 0.9% NaCl under subdued light. SnPP was administered either subcutaneously or by gavage in a single dose of 25 umoles/kg body weight (4.0 ml/kg body weight). Control rats received an equivalent volume of diluent. All rats were allowed free access to food and water.
(§2) Animals were sacrificed at the times indicated in the legend to the Table and in the above and following descriptions of the Figures, and then exhaustively perfused in situ with ice-cold 0.9% NaCl through the left ventricle. The small intestine was cut at the pyloric junction and the entire length of the intestine irrigated in situ with 30 ml of ice-cold 0.9% NaCl to remove intestinal contents. Beginning at 5 cm, a 20 cm segment of small intestine was excised and irrigated once more with 30 ml of saline. The mucosa was then gently scraped off with a stainless steel scalpel and placed in ice-cold potassium phosphate buffer (0.1M, pH 7.4), containing sucrose (0.25M), 20% glycerin (v/v), trypsin inhibitor (5 mg/ml), and heparin (3 U/ml), as described by Stohs et al, Arch. Biochem Biophys. 177: 105-116 (1976). Following sonication and homogenization, intestinal microsomes were then prepared by differential centrifugation as described in Rosenberg et al, Biochem. Pharmacol. 38: 1155-1161 (1988). The microsomal pellet was rinsed and resuspended in 1.5 ml of potassium phosphate buffer (0.1M, pH 7.4) to a protein concentration of approximately 5-10 mg/ml. Microsomes were freshly prepared on a daily basis for all subsequent assays. The activity of heme oxygenase was determined as described in Maines et al, J. Biol. Chem. 250: 4171-4178 (1975), using the 105,000xg supernatant fraction derived from normal rat liver as the source of biliverdin reductase, and a hemin concentration of 50 uM. Bilirubin formation was calculated using an absorption coefficient of 40 mm^1 cm^1 between 464 and 530 nm (See Maines et al, Proc. Natl. Acad. Sci. USA 71: 4293-4297 (1974)). Protein content was determined by method of Lowry et al, J. Biol. Chem. 193: 265-275 (1951) suing bovine serum albumin as a standard.
A single does of SnPP (25 umoles/kg b.w.) was administered either orally or parenterally to rats, and heme oxygenase levels were determined in the small intestinal epithelium at the times indicated in FIG. 1. This dose was selected to match that previously used by other investigators (See Hintz et al, Ped. Res. 23: 50-53 (1988)). Following oral treatment, heme oxygenase activity was rapidly (within 3 hours) inhibited (50% of controls), but the levels returned to normal within 16-24 hours after treatment.

[2] = tested on: intestinal microsomal heme oxygenase; assay: Competitive inhibition of intestinal microsomal heme oxygenase in vitro; format: biochemical, rat
Experimental: SnPP (o) was added to intestinal microsomes at concentrations of […]. The heme concentration was 50 uM. Heme oxygenase activity was determined as described below under Materials and Methods. Each point represents the mean of at least 3 individual experiments. Similar results obtain for other metalloporphyrins within the scope of the present invention.
as §2
This is similar to the Km reported for heme in hepatic and splenic microsomes (See Kappas et al, J. Clin. Invest. 77: 335-339 (1986); Yoshinaga et al, J. Biol. Chem. 257: 7778-7785 (1982)).

[3] = rat, in vivo, po
Experimental: as §1
All tin analyses were performed on Zeeman/5000 atomic absorption spectrophotometer equipped with an HGA-500 graphite furnace Perkin-Elmer Corp., Norwalk, Conn.). The graphite furnace utilized the L'vov platform (See Slavin et al, At. Spectrosc. 2: 137-145 (1981)) with an appropriate wavelength (286.4 nm) and instrumental operating conditions as recommended by the manufacturer and optimized in our laboratory for tin measurement. All tin analyses included magnesium nitrate and ammonium phosphate in 20% nitric acid as a matrix modified.
For Table II: SnPP was adminsitered to rats in a single dose (25 umoles/kg body weight) either orally or subcutaneously. Tissue tin levels were determined 48 hours later by graphite furnace atomic absorption spectroscopy. […]

[4] = tested on: intestinal heme oxygenase; details: in vitro or in vivo after administration of SnPP; Hintz et al 1988; cited from earlier work
[5] = SnPP 25 umoles/kg single oral dose, rat

inhibition of heme oxygenase activity ([1]; SnPP 25 umoles/kg single parenteral (subcutaneous) dose, rat): 65 % inhibition
Km ([2]; SnPP 0.05 uM, intestinal microsomes, read-out: Km for heme in presence of SnPP): 23.9 µM
Km ([2]; SnPP 0.1 uM, intestinal microsomes, read-out: Km for heme in presence of SnPP): 56.2 µM
increase in the Km for heme ([2]; SnPP 0.05 and 0.1 uM): 3- to 7 fold
type of inhibition of enzyme activity ([2]; SnPP 0.05 and 0.1 uM added to incubation mixtures): marked competitive inhibition
Ki ([2]; intestinal microsomes): 17 nM
absorption from the gastrointestinal tract [3]: very low degree of absorption
Molecule: C=Cc1c2[n-]c(c1C)/C=c1\[n-]/c(c(C)c1C=C)=C\c1[n-]c(c(CCC(=O)O)c1C)/C=c1\[n-]c(c(C)c1CCC(=O)O)=C2.[Sn+4] [SnPP, tin protoporphyrin]
heme oxygenase activity in small intestinal epithelium [1, 5]: 50 % of controls
time for heme oxygenase levels to return to normal [1, 5]: 16 to 24 h
time to inhibition of heme oxygenase activity [1, 5]: ≤ 3 h
persistence of decreased heme oxygenase activity ([1]; SnPP 25 umoles/kg single parenteral dose, rat): at least 48 hours
inhibition of intestinal heme oxygenase [4]: no inhibition

Molecule: C=CC1=C(C)c2cc3[n-]c(cc4[n-]c(cc5nc(cc1n2)C(C)=C5C=C)c(C)c4CCC(=O)O)c(CCC(=O)O)c3C.[Fe+2] [heme, reference compound]
Km ([2]; intestinal microsomes, no inhibitor, linear regression, read-out: apparent Km for the substrate heme): 8.21 µM

Molecule: chromium mesoporphyrin [CrMP]
Heme Oxygenase Activity in the Gut, Average ([1]; 3 hours after oral 25 umol/Kg CrMP): 0.64 + 0.38
Heme Oxygenase Activity in the Gut, Average ([1]; 16 hours after oral 25 umol/Kg CrMP): 1.04 + 0.02
Heme Oxygenase Activity in the Gut, Average ([1]; 24 hours after oral 25 umol/Kg CrMP): 1.85 + 0.07
Heme Oxygenase Activity in the Gut, Average ([1]; 48 hours after oral 25 umol/Kg CrMP): 2.57 + 0.07

From US5223494A, “Orally administered porphyrins to control intestinal iron absorption” (The Rockefeller University, priority 1990, dated 1993)
